We go through one compound from ChEMBL document CHEMBL4417629, “Inhibitors of RAD52 Recombination Protein and Methods Using Same” (2018).

The source made the active and inactive calls. No cut-off for these calls is given here.

For assay [1], the target named is T1, DNA repair protein RAD51 homolog 1 (Mus musculus) (UniProt Q08297).
T1 sequence (whole entry): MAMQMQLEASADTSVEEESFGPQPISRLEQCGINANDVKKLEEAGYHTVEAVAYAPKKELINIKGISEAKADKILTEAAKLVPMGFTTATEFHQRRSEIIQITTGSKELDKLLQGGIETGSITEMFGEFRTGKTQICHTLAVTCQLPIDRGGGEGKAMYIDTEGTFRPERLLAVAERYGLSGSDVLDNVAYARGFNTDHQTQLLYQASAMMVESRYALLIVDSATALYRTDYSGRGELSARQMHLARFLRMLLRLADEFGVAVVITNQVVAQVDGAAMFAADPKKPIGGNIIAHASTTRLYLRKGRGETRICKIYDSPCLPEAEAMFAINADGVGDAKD
The experiment in a line: Inhibition of RAD51 in BCR-ABL1-positive and BRCA1-proficient mouse 32Dcl3 cells assessed as reduction in cisplatin-induced RAD51 foci formation by AlexaFluor-594 staining based inverted fluorescence microscopy.

Assay [2] deals with U2OS. The experiment in a line: Effect on homology dependent recombination in human U2OS cells co-expressing DR-GFP assessed as measuring green fluorescence at 30 uM flow cytometry (reference value: 7.13%). It counts as functional. Background: In flow cytometry, cells or beads pass a laser one at a time.
Assay [3] addresses T2, DNA repair protein RAD52 homolog (Homo sapiens) (UniProt P43351).
T2 sequence (whole entry): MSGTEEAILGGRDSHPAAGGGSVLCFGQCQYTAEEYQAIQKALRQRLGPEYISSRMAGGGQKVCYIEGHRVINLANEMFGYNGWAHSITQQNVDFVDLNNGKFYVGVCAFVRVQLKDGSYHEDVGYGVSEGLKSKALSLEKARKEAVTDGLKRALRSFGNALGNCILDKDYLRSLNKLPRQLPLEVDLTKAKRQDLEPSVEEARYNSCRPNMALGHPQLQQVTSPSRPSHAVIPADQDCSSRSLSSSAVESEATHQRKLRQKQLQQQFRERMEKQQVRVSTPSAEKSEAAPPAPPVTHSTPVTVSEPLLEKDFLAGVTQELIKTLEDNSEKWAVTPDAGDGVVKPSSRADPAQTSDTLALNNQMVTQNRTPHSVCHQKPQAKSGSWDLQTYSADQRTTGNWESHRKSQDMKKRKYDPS
The experiment in a line: Inhibition of RAD52 in human U2OS cells co-expressing SSA-GFP assessed as inhibition of repair of I-Scel-induced double stranded breaks by measuring green fluorescence at 15 uM by flow cytometry (reference value: 7.1%). More on the design: scale not given: the % may be the effect or the level left. It counts as cell-based.

The target in assay [4] is T2, DNA repair protein RAD52 homolog (Homo sapiens). The assay is described as follows: Inhibition of RAD52 in human U2OS cells co-expressing SSA-GFP assessed as inhibition of repair of I-Scel-induced double stranded breaks by measuring green fluorescence at 10 uM by flow cytometry (reference value: 7.1%). The assay is classed as cell-based. More on the design: scale not given: the % may be the effect or the level left.

The target is the same in assay [5]. The assay is described as follows: Inhibition of RAD52 in human U2OS cells co-expressing SA-GFP assessed as reduction in single strand DNA annealing incubated for 48 hrs by GFP+ positive cells detection based flow cytometry. The assay is classed as cell-based.
The test system of assay [6] is U2OS. The assay is described as follows: Effect on homology dependent recombination in human U2OS cells co-expressing DR-GFP assessed as measuring green fluorescence at 20 uM flow cytometry (reference value: 7.13%). The assay is classed as functional.
The species entered for a further assay is Homo sapiens. The assay is described as follows: Growth inhibition of BCR-ABL1-positive and BRCA1-deficient human CML cells at 2.5 to 10 uM treated with compound on days 0 and 2 and measured on day 4 by trypan blue staining based assay. It counts as functional.
Assay [7] addresses T2, DNA repair protein RAD52 homolog (Homo sapiens). The assay is described as follows: Inhibition of RAD52 (unknown origin) expressed in BCR-ABL1-positive and BRCA1-deficient mouse 32Dcl3 cells expressing GFP-RAD52 assessed as cisplatin-induced RAD52 foci formation at 2.5 uM by AlexaFluor-594 staining based inverted fluorescence microscopy (reference value: 38.7 +/- 10%). It counts as cell-based. More on the design: scale not given: the % may be the effect or the level left.

Assay [8] concerns U2OS. The assay is described as follows: Effect on homology dependent recombination in human U2OS cells co-expressing pMX-GFP at 10 to 30 uM by flow cytometry. It counts as functional, cell-based.

Take `CCN(CC)CCN=C(S)Nc1ccc2nc(N3CCN(C)CC3)cc(C)c2c1`: the inhibition entry in assay [1] was “inactive”. For the same compound, the Activity in the assay on U2OS [2] was 5.18%; in assay [3], 4.08%; in assay [4], 6.28%; in the assay with U2OS [6], 6.2%; in assay [7], 17%. In addition, the inhibition entry in [5] is “Dose-dependent effect”. For the same compound, the “growth inhibition (GI)” value in the assay filed under Homo sapiens was “Active”. For the same compound, the result with U2OS [8] was inactive.
